Assay results reported in PMC2783875 (Biochemistry, 2009).

Biological target: T1, EntE (Escherichia coli, UniProt P10378)
T1 sequence (P10378 1-536): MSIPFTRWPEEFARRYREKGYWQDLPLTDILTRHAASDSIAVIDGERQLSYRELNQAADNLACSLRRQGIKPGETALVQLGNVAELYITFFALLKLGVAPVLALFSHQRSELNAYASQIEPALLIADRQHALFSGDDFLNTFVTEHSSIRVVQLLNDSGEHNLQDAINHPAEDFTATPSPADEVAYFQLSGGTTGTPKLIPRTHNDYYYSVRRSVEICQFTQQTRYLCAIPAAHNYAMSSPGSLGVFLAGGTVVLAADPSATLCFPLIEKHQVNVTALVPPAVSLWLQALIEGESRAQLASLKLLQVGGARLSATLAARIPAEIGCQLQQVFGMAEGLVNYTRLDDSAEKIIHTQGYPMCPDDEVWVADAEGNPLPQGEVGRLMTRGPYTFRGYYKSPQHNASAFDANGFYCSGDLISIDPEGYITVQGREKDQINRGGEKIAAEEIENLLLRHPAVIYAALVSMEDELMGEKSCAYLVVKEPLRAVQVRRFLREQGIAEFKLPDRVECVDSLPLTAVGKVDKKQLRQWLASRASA
Assay: enzyme inhibition kinetics versus ATP
Type: biochemical

## Nc1ncnc2c1ncn2[C@@H]1O[C@H](COP(=O)(O)OP(=O)(O)OP(=O)(O)OP(=O)(O)OC[C@H]2O[C@@H](n3cnc4c(N)ncnc43)[C@H](O)[C@@H]2O)[C@@H](O)[C@H]1O [Ap4A, P^1, P^3-diadenosine-5′-tetraphosphate]
  Ki: 1.2 ± 0.1 µM
